Legend:
[1] = biological target: T1, Substance-K receptor (Oryctolagus cuniculus, UniProt P79218); assay: In vitro functional activity towards Neurokinin NK2 receptor on isolated rabbit urinary bladder (RUB); details: for Kb: read-out: pA2 (converted)
T1 sequence (P79218 whole entry): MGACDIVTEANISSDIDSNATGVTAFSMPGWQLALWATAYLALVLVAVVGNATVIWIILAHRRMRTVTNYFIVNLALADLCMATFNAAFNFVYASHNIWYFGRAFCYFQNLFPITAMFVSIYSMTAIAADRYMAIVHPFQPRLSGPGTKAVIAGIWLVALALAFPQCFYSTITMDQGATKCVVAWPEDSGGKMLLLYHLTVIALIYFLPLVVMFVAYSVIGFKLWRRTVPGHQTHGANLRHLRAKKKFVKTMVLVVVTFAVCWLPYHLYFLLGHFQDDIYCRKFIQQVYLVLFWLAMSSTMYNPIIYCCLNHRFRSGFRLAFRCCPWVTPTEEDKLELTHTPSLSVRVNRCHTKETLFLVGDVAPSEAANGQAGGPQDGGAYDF

[2] = biological target: T2, Substance-K receptor (Homo sapiens, UniProt P21452); assay: Displacement of [125I]NKA from human Tachykinin receptor 2 expressed in CHO cells; type: cell-based
T2 sequence (P21452 whole entry): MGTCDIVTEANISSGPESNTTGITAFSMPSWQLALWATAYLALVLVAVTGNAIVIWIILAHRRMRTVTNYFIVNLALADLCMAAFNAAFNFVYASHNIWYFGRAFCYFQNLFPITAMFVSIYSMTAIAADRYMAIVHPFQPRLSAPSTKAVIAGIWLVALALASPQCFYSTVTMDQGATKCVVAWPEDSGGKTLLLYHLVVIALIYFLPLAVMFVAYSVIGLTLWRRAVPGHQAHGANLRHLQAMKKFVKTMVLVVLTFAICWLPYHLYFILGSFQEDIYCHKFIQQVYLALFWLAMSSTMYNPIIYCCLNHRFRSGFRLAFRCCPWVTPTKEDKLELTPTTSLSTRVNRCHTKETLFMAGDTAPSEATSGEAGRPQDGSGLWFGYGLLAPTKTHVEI

Kb [1] [nM]	Ki [2] [nM]	pA2 [1]	Structure (SMILES)
2.51	1.58	–	O=C1C[C@@H](CC(=O)N2CCC(N3CCCCC3)CC2)C(=O)NC[C@@H](Cc2ccccc2)NC(=O)[C@@H](Cc2ccccc2)NC(=O)[C@H](Cc2c[nH]c3ccccc23)N1
3.98	5.01	–	O=C1C[C@H](CC(=O)N2CCC(N3CCCCC3)CC2)C(=O)NC[C@@H](Cc2ccccc2)NC(=O)[C@@H](Cc2ccccc2)NC(=O)[C@H](Cc2c[nH]c3ccccc23)N1
1	1.58	–	O=C1CC(C(=O)N2CCN(CCOCCO)CC2)C(=O)NC[C@@H](Cc2ccccc2)NC(=O)[C@@H](Cc2ccccc2)NC(=O)[C@H](Cc2c[nH]c3ccccc23)N1 (some centres not stated)
6.31	7.94	–	CC(=O)NC1C(NC(=O)C[C@@H]2CC(=O)N[C@@H](Cc3c[nH]c4ccccc34)C(=O)N[C@H](Cc3ccccc3)C(=O)N[C@H](Cc3ccccc3)CNC2=O)OC(CO)C(O)C1O (some centres not stated)
3.98	2.51	–	CC(=O)NC1C(NC(=O)C2CC(=O)N[C@@H](Cc3c[nH]c4ccccc34)C(=O)N[C@H](Cc3ccccc3)C(=O)N[C@H](Cc3ccccc3)CNC2=O)OC(CO)C(O)C1O (some centres not stated)
3.16	6.31	–	CN(C)CCNC(=O)C[C@@H]1CC(=O)N[C@@H](Cc2c[nH]c3ccccc23)C(=O)N[C@H](Cc2ccccc2)C(=O)N[C@H](Cc2ccccc2)CNC1=O
7.94	6.31	–	CC(=O)NC1C(NC(=O)C[C@H]2CC(=O)N[C@@H](Cc3c[nH]c4ccccc34)C(=O)N[C@H](Cc3ccccc3)C(=O)N[C@H](Cc3ccccc3)CNC2=O)OC(CO)C(O)C1O (some centres not stated)
1	0.631	–	O=C1C[C@@H](CC(=O)N2CCOCC2)C(=O)NCC(Cc2ccccc2)NC(=O)C(Cc2ccccc2)NC(=O)[C@H](Cc2c[nH]c3ccccc23)N1 (single isomer, unassigned)
6.31	10	–	O=C(C[C@@H]1CC(=O)N[C@@H](Cc2c[nH]c3ccccc23)C(=O)NC(Cc2ccccc2)C(=O)NC(Cc2ccccc2)CNC1=O)NC1OC(CO)C(O)C(O)C1O (single isomer, unassigned)
0.631	0.126	–	O=C1CC(C(=O)N2CCOCC2)C(=O)NCC(Cc2ccccc2)NC(=O)C(Cc2ccccc2)NC(=O)[C@H](Cc2c[nH]c3ccccc23)N1 (single isomer, unassigned)
3.16	3.98	–	O=C1CC(C(=O)NC(CO)CO)C(=O)NCC(Cc2ccccc2)NC(=O)C(Cc2ccccc2)NC(=O)[C@H](Cc2c[nH]c3ccccc23)N1 (single isomer, unassigned)
5.01	–	–	O=C1CCC(=O)N[C@@H](Cc2c[nH]c3ccccc23)C(=O)NC(Cc2ccccc2)C(=O)N[C@H](Cc2ccccc2)CN1 (single isomer, unassigned)
0.794	0.0501	–	O=C1CC(C(=O)N2CCC(N3CCCCC3)CC2)C(=O)NCC(Cc2ccccc2)NC(=O)C(Cc2ccccc2)NC(=O)[C@H](Cc2c[nH]c3ccccc23)N1 (single isomer, unassigned; 8e)
–	0.316	9.1	O=C1CC(C(=O)N2CCC(N3CCCCC3)CC2)C(=O)NCC(Cc2ccccc2)NC(=O)C(Cc2ccccc2)NC(=O)[C@H](Cc2c[nH]c3ccccc23)N1 (single isomer, unassigned; 8f)
